Measurements reported in patent US8080367B2, “Regulation of cell survival by HSP90 and IP6K2” (The Johns Hopkins University, priority 2006, dated 2011).
Entries after “also recorded” stand apart in the source; their conditions may differ.

What was measured:
[1] = test system: IP6K2; assay: IP7 measurement in vivo (IP6K activity as IP7/IP6 ratio in [3H]inositol labeled cells); conditions: HeLa cells with or without overexpression of IP6K2
[2] = test system: HeLa cells; assay: Cell death (% apoptotic nuclei) in IP6K2 siRNA depleted cells; assay type: cell-based; conditions: IP6K2 RNA interference (~40% less IP7 formation)
Description: (§1) FIG. 5A. […] FIG. 5B. […] FIG. 5C. […] FIG. 5D. […] FIG. 5E.

[3] = test system: HeLa cells; assay: Cell death / survival (MTT assay) with IP6K2 overexpression; assay type: cell-based; conditions: HeLa cells transfected with IP6K2
Description: as §1

[4] = test system: IP6K2; assay: Intracellular localization of IP6K2 (nuclei isolation, fluorescence microscopy); assay type: cell-based; conditions: for effect on nuclear vs cytosolic myc-IP6K2, nuclei isolation and densitometry: 60 μg total protein per lane, anti-myc blot; for effect on intracellular localization of IP6K2: drug-treated cells
Procedure: FIG. 4A-4F. HSP90 regulates intracellular localization of IP6K2. FIG. 4A. […] Following drug treatment, nuclei were isolated from the rest of the cytoplasm. In each lane, 60 μg of total protein was loaded and the localization of IP6K2 assessed with an anti-myc antibody. Bands were analyzed by densitometry and changes in localization were calculated with the basal distribution of IP6K2 as a control. […] FIG. 4B. GFP-IP6K2 stably expressed in HEK 293 cells is distributed to a similar extent in cytosol and nucleus. Cells were stained with Hoechst stain for nucleus. FIG. 4C. Overexpression of pDSRed-HSP90 in HEK293 stably expressing GFP-IP6K2 retains IP6K2 completely in the cytosol. HSP90 also co-localizes well with IP6K2 as indicated by the yellow color of the merged picture. FIG. 4D. […] FIG. 4E. […] Cells overexpressing HSP90 (arrow a) display co-localization of IP6K2-HSP90 in the cytosol, whereas in cells lacking overexpressed HSP90 (arrow b), IP6K2 is nuclear. FIG. 4F. Effects of HSP90 depletion on intracellular localization of IP6K2. In HeLa, cells transiently expressed GFP-IP6K2 occurs diffusely throughout cells. Depletion of HSP90 by RNAi (depletion is 100% as shown in FIG. 6), leads to nuclear accumulation of IP6K2.
Isolation of nuclei: Nuclei were separated from other cytoplasmic components using commercial kits (See ‘Reagents’ section). Preparation was checked each time by running appropriate controls for nucleus (p84).
Fluorescence microscopy: HeLa cells were transfected with pEGFP+IP6K1/IP6K2/IP6K3, either alone or with pDsRed HSP90α with or without drug or siRNA treatment, fixed with ice cold methanol, stained with Hoechst stain for nucleus and observed under an Ultraview1 confocal microscope.

[5] = target: IP6K2-HSP90 binding (Homo sapiens, UniProt P07900); assay: Co-immunoprecipitation of HSP90 with IP6K2 from drug-treated cells; assay type: cell-based; conditions: for effect on IP6K2-HSP90 binding, coimmunoprecipitation: HEK 293 cells; for effect on binding of HSP90 with IP6K2, coimmunoprecipitation: myc-IP6K2-transfected HeLa cells, CP 30 overnight, NB 500 μM overnight, ST 1 μM 6 h, AAG 1 μM overnight
Procedure: (§2) FIG. 3A, 3B, 3C. […] FIG. 3E.
Cell culture: HeLa and HEK 293 were cultured as described (18). […] HEK293 and HeLa cells were transiently transfected using polyfect transfection reagent (Qiagen). siRNAs were transfected with ‘Hiperfect’ transfection reagent (Qiagen).
Co-immunoprecipitation: Cells/mouse brain were homogenised in lysis buffer (20 mM Tris pH 7.4, 150 mM NaCl, 0.5% NP-40, and protease inhibitor cocktails). Equal amounts of protein were immunoprecipitated at 4° C. overnight using the protein A/G agarose beads in the presence of antibody. After immunoprecipitation, beads were washed four times with lysis buffer. Co-immunoprecipitates were resolved by SDS-PAGE and analysed by western blotting.

[6] = test system: HeLa cells; conditions: reference 10; cited from earlier work
[7] = target: HSP90 (Homo sapiens, UniProt P07900); assay: HSP90 binding to ATP-agarose beads; conditions: increasing concentrations, FIG. 7
Description: Beads were washed with wash buffer and run on 4-12% SDS-PAGE. Bound HSP90 was detected by western blotting with anti-HSP90 monoclonal antibody.

[8] = target: T1, IP6K2-HSP90 binding (Homo sapiens, UniProt Q9UHH9); assay: In vitro HSP90-IP6K2 binding assay with purified proteins; conditions: IP6K2 preincubated with increasing concentrations of IP6 15 min, then HSP90 1 h
T1 construct: purified endogenous HSP90 (HeLa); made in house; host or cells: HSP90 purified from HeLa cells (endogenous); myc-IP6K2 immunoprecipitated from transfected HEK 293 cells
T1 sequence (Q9UHH9 1-426): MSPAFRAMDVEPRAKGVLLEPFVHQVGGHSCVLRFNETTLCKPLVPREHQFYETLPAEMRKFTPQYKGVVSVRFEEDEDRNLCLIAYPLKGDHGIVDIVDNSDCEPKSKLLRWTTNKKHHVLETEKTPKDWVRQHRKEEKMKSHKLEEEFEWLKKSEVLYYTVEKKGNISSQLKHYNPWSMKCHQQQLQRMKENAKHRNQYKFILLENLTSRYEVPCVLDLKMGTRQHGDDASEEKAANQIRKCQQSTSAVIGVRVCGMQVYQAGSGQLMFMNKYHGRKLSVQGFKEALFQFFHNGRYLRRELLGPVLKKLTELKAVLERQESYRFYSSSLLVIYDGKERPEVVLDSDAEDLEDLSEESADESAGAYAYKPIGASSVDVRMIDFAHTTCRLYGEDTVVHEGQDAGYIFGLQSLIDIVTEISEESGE
Description: as §2

[9] = test system: IP6K2-HSP90 binding; assay: as above; design: species or system human; conditions: data not shown
Description: as §2

[10] = target: T2, IP6K2-HSP90 binding; assay: as above; design: species or system human; conditions: purified proteins; 250 nM HSP90 from HeLa preincubated with drug 30 min 37° C., then myc-IP6K2 beads; western blot; read-out: concentration reducing IP6K2-HSP90 binding by 50%
T2 construct: other: purified proteins; 250 nM HSP90 from HeLa preincubated with d
Description: as §2

| Compound | effect on IP6K2 activity / IP7 formation in cells [1] | change of drug-elicited cell death in IP6K2 depleted cells [2] | change of drug's apoptotic action on IP6K2 overexpression [3] | effect on nuclear vs cytosolic myc-IP6K2, nuclei isolation and densitometry [4] | effect on intracellular localization of IP6K2 [4] | effect on IP6K2-HSP90 binding, coimmunoprecipitation [5] | effect on binding of HSP90 with IP6K2, coimmunoprecipitation [5] | IC50 [10] | other results |
| --- | --- | --- | --- | --- | --- | --- | --- | --- | --- |
| C=CCNC1=C2C[C@@H](C)C[C@H](OC)[C@H](O)[C@@H](C)/C=C(\C)[C@H](OC(N)=O)[C@@H](OC)/C=C\C=C(/C)C(=O)NC(=CC1=O)C2=O [AAG, 17-aminoallyl geldanamycin] | diminishes IP6K activity; also recorded: less IP7 formation | unaffected by IP6K2 depletion | unaffected by IP6K2 overexpression | elicits the opposite effect | increases IP6K2 localization in the cytosol |  |  |  |  |
| CN[C@@H]1C[C@H]2O[C@@](C)([C@@H]1OC)n1c3ccccc3c3c4c(c5c6ccccc6n2c5c31)C(=O)NC4 [staurosporine] | augmented IP6K2 activity |  | markedly enhanced by IP6K2 overexpression |  | elicits mitochondrial translocation of IP6K2 | diminish IP6K2-HSP90 binding | disrupt the binding of HSP90 with IP6K2 |  | effect on IP6K2 activity / IP7 formation in cells ([1]; listed as ST): increase IP6K activity; change of drug's apoptotic effects on IP6K2 depletion, previously reported [6]: IP6K2 depletion prevents the apoptotic effects; effect on HSP90 binding to ATP-agarose beads [7]: inhibits binding of HSP90 to ATP-agarose beads in a concentration dependent manner |
| O=P(O)(O)O[C@H]1[C@H](OP(=O)(O)O)[C@@H](OP(=O)(O)O)[C@H](OP(=O)(O)O)[C@@H](OP(=O)(O)O)[C@H]1OP(=O)(O)O [IP6] |  |  |  |  |  |  |  |  | effect of IP6 on in vitro binding of HSP90 to myc IP6K2 [8]: abolished |
| p23: a co-chaperone which binds HSP90 with high affinity |  |  |  |  |  |  |  |  | effect of p23 on in vitro IP6K2-HSP90 binding [9]: only influences in vitro IP6K2-HSP90 binding at a high molar ratio (1:20); effect of p23 on IP6K2-HSP90 coprecipitation ([5]; HeLa cells, data not shown): does not affect their coprecipitation in HeLa cells |
| N.N.[Cl][Pt][Cl] [cisplatin] | augmented IP6K2 activity | reduced by almost half | markedly enhanced by IP6K2 overexpression |  | enhance nuclear levels of IP6K2 | diminish IP6K2-HSP90 binding | disrupt the binding of HSP90 with IP6K2 | 1 to 5 µM | effect on IP6K2 activity / IP7 formation in cells ([1]; listed as CP): increase IP6K activity |
| CO[C@@H]1[C@@H](OC(N)=O)[C@@H](O)[C@H](Oc2ccc3c(O)c(NC(=O)c4ccc(O)c(CC=C(C)C)c4)c(=O)oc3c2C)OC1(C)C [novobiocin] | augmented IP6K2 activity | reduced by almost half | markedly enhanced by IP6K2 overexpression | increases nuclear and decreases cytosolic IP6K2 | enhance nuclear levels of IP6K2 |  |  | ~200 µM | effect on IP6K2 activity / IP7 formation in cells ([1]; listed as NB): increase IP6K activity |
